The values below come from patent publication US12723063B2, “GIPR-agonist compounds” (Eli Lilly and Company, priority 2019, dated 2026).

One test has as its target T1, human GcgR (Homo sapiens, UniProt P47871).
T1 construct: expressed in transfected cells; crude membranes
Kind of test: [125I]-Glucagon binding, SPA with WGA beads, 0.1% bacitracin. To be noted: geometric mean, read-out: hGcgR Ki. A digest of the protocol: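 SPA competition binding with WGA beads on crude membranes from HEK293 cells stably expressing hGcgR. Buffer: 25 mM HEPES pH 7.4, 2.5 mM CaCl2, 1 mM MgCl2, 0.1% bacitracin, 0.003% Tween-20; 10-point 3-fold dilutions, NSB with 1 μM Gcg.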

For another test, the target named is T2, human GIPR (Homo sapiens, UniProt P48546).
T2 construct: expressed in transfected cells; crude membranes
T2 sequence (P48546 22-466): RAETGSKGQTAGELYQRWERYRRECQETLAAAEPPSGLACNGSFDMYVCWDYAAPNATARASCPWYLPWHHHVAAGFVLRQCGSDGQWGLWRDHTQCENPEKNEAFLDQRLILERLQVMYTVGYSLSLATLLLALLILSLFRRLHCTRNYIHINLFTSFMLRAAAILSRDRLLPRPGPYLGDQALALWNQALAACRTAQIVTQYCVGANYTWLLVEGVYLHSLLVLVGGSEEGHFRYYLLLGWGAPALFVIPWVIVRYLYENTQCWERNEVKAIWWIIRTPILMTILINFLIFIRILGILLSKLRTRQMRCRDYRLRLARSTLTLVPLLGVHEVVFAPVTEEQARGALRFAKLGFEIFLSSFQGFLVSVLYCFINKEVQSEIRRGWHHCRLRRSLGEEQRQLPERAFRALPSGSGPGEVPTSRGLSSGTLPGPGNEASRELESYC
Kind of test: [125I]-GIP binding, SPA with WGA beads, 0.1% bacitracin. To be noted: geometric mean, read-out: hGIPR Ki. The procedure, abridged: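 Ki values are geometric means (SEM, n independent days), derived from four-parameter nonlinear regression of IC50. Membranes came from hGIPR-expressing CHO cells.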

The next test concerns the target T3, human GLP-1R (Homo sapiens, UniProt P43220).
T3 construct: expressed in transfected cells; crude membranes
Description: [125I]-GLP-1 binding, SPA with WGA beads, 0.1% bacitracin. To be noted: geometric mean, read-out: hGLP1R Ki. The procedure, abridged:
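Binding buffer was 25 mM HEPES pH 7.4 with 2.5 mM CaCl2, 1 mM MgCl2, 0.1% (w/v) bacitracin, 0.003% Tween-20 and EDTA-free protease inhibitors. Four-parameter regression gave IC50, converted to Ki (geometric mean, SEM, n independent days).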

Each structure is given as a SMILES string. pKi: −log10 of the molar value. *1 amine or outer side, *2 acyl side, *3 side chain or, on linkers, in order; H or OH if unused. Where a SMILES comes first, the peptide text is derived from it. Side-chain parts run from the residue outwards. [ ]: non-standard residue; d: D form. The star is where a group is joined. C20 diacid = O=C(O)CCCCCCCCCCCCCCCCCCC(=O)*; γGlu = O=C(O)[C@H](CCC(=O)[*:2])N[*:1]; αMeF = C[C@](N)(Cc1ccccc1)C(=O)O; 4Pal = N[C@@H](Cc1ccncc1)C(=O)O; αMeL = CC(C)C[C@](C)(N)C(=O)O; AEEA = NCCOCCOCC(=O)O; Aib = CC(C)(N)C(=O)O

T1 sequence (P47871 26-477): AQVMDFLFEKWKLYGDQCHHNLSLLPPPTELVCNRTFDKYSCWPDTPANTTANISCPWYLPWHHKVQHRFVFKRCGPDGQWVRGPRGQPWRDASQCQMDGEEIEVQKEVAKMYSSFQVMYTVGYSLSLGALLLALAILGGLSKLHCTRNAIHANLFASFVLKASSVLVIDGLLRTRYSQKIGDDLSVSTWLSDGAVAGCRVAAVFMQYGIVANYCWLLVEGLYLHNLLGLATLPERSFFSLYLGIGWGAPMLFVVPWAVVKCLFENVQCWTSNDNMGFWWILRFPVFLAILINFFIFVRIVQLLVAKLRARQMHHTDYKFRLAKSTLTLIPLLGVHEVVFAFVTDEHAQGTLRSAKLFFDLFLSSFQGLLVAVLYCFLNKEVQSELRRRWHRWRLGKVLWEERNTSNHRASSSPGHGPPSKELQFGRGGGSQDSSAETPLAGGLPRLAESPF
T3 sequence (P43220 24-463): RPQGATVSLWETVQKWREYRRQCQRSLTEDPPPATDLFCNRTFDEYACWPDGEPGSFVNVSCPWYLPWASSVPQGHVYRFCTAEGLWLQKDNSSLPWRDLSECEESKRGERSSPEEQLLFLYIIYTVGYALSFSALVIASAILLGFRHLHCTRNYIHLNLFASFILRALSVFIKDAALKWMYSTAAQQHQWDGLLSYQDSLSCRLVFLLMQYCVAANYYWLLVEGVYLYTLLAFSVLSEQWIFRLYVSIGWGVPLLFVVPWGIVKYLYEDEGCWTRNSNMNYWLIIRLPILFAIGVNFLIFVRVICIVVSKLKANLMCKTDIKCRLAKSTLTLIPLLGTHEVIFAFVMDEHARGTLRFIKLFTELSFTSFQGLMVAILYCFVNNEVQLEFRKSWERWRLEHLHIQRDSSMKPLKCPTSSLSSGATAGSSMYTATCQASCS

`CC[C@H](C)[C@H](NC(=O)[C@H](Cc1ccccc1)NC(=O)[C@@H](NC(=O)CNC(=O)[C@H](CCC(=O)O)NC(=O)C(C)(C)NC(=O)[C@@H](N)Cc1ccc(O)cc1)[C@@H](C)O)C(=O)N[C@@H](CO)C(=O)N[C@@H](CC(=O)O)C(=O)N[C@@H](Cc1ccc(O)cc1)C(=O)N[C@@H](CO)C(=O)N[C@H](C(=O)N[C@@](C)(CC(C)C)C(=O)N[C@@H](CC(C)C)C(=O)N[C@@H](CC(=O)O)C(=O)N[C@@H](CCCCN)C(=O)N[C@@H](CCCCNC(=O)COCCOCCNC(=O)COCCOCCNC(=O)CC[C@H](NC(=O)CCCCCCCCCCCCCCCCCCC(=O)O)C(=O)O)C(=O)N[C@@H](Cc1c[nH]cn1)C(=O)N[C@@H](CCC(N)=O)C(=O)NC(C)(C)C(=O)N[C@@H](CCC(=O)O)C(=O)N[C@@H](Cc1ccccc1)C(=O)N[C@H](C(=O)N[C@@H](CCC(=O)O)C(=O)N[C@@H](Cc1ccncc1)C(=O)N[C@@H](CC(C)C)C(=O)N[C@@H](CC(C)C)C(=O)N[C@@H](C)C(=O)N[C@@H](C)C(=O)NCC(=O)N1CCC[C@H]1C(=O)N[C@@H](CO)C(=O)N[C@@H](CO)C(=O)NCC(=O)N[C@@H](C)C(=O)N1CCC[C@H]1C(=O)N1CCC[C@H]1C(=O)N1CCC[C@H]1C(=O)N[C@@H](CO)C(N)=O)C(C)C)[C@@H](C)CC` [Example 59]: the pKi on human GcgR is 6.64; on human GIPR it was 10.83; at human GLP-1R, 6.96.

As to `CC[C@H](C)[C@H](NC(=O)[C@H](CO)NC(=O)[C@H](Cc1ccc(O)cc1)NC(=O)[C@H](CC(=O)O)NC(=O)[C@H](CO)NC(=O)[C@@H](NC(=O)[C@](C)(Cc1ccccc1)NC(=O)[C@@H](NC(=O)CNC(=O)[C@H](CCC(=O)O)NC(=O)C(C)(C)NC(=O)[C@@H](N)Cc1ccc(O)cc1)[C@@H](C)O)[C@@H](C)CC)C(=O)N[C@@](C)(CC(C)C)C(=O)N[C@@H](CC(C)C)C(=O)N[C@@H](CC(=O)O)C(=O)N[C@@H](CCCCN)C(=O)N[C@@H](CCCCNC(=O)COCCOCCNC(=O)COCCOCCNC(=O)CC[C@H](NC(=O)CCCCCCCCCCCCCCCCCCC(=O)O)C(=O)O)C(=O)N[C@@H](Cc1c[nH]cn1)C(=O)N[C@@H](CCC(N)=O)C(=O)NC(C)(C)C(=O)N[C@@H](CCC(=O)O)C(=O)N[C@@H](Cc1ccccc1)C(=O)N[C@H](C(=O)N[C@@H](CCC(=O)O)C(=O)N[C@@H](Cc1ccncc1)C(=O)N[C@@H](CC(C)C)C(=O)N[C@@H](CC(C)C)C(=O)N[C@@H](C)C(=O)N[C@@H](CCC(N)=O)C(=O)NCC(=O)N1CCC[C@H]1C(=O)N[C@@H](CO)C(=O)N[C@@H](CO)C(=O)NCC(=O)N[C@@H](C)C(=O)N1CCC[C@H]1C(=O)N1CCC[C@H]1C(=O)N1CCC[C@H]1C(=O)N[C@@H](CO)C(N)=O)C(C)C` [Example 60] (H-Y[Aib]EGT[αMeF]ISDYSI[αMeL]LDKK([AEEA-AEEA-γGlu-C20 diacid])HQ[Aib]EFVE[4Pal]LLAQGPSSGAPPPS-NH2), the figures for the pKi on human GcgR, on human GIPR and at human GLP-1R were 7.58, 10.41 and 7.29, respectively.

`CC[C@H](C)[C@H](NC(=O)[C@H](CO)NC(=O)[C@H](Cc1ccc(O)cc1)NC(=O)[C@H](CC(=O)O)NC(=O)[C@H](CO)NC(=O)[C@@H](NC(=O)[C@](C)(Cc1ccccc1)NC(=O)[C@@H](NC(=O)CNC(=O)[C@H](CCC(=O)O)NC(=O)C(C)(C)NC(=O)[C@@H](N)Cc1ccc(O)cc1)[C@@H](C)O)[C@@H](C)CC)C(=O)N[C@@](C)(CC(C)C)C(=O)N[C@@H](CC(C)C)C(=O)N[C@@H](CC(=O)O)C(=O)N[C@@H](CCCCN)C(=O)N[C@@H](CCCCNC(=O)COCCOCCNC(=O)COCCOCCNC(=O)CC[C@H](NC(=O)CCCCCCCCCCCCCCCCCCC(=O)O)C(=O)O)C(=O)N[C@@H](Cc1c[nH]cn1)C(=O)N[C@@H](CCC(N)=O)C(=O)NC(C)(C)C(=O)N[C@@H](CCC(=O)O)C(=O)N[C@@H](Cc1ccccc1)C(=O)N[C@H](C(=O)N[C@@H](CCC(=O)O)C(=O)N[C@@H](Cc1ccncc1)C(=O)N[C@@H](CC(C)C)C(=O)N[C@@H](CC(C)C)C(=O)N[C@@H](C)C(=O)N[C@H](C(=O)NCC(=O)N1CCC[C@H]1C(=O)N[C@@H](CO)C(=O)N[C@@H](CO)C(=O)NCC(=O)N[C@@H](C)C(=O)N1CCC[C@H]1C(=O)N1CCC[C@H]1C(=O)N1CCC[C@H]1C(=O)N[C@@H](CO)C(N)=O)[C@@H](C)O)C(C)C` [Example 61] (H-Y[Aib]EGT[αMeF]ISDYSI[αMeL]LDKK([AEEA-AEEA-γGlu-C20 diacid])HQ[Aib]EFVE[4Pal]LLATGPSSGAPPPS-NH2): the pKi on human GcgR was 7.09; on human GIPR, 10.18; on human GLP-1R it was 6.87.

For the compound `CC[C@H](C)[C@H](NC(=O)[C@H](CO)NC(=O)[C@H](Cc1ccc(O)cc1)NC(=O)[C@H](CC(=O)O)NC(=O)[C@H](CO)NC(=O)[C@@H](NC(=O)[C@](C)(Cc1ccccc1)NC(=O)[C@@H](NC(=O)CNC(=O)[C@H](CCC(=O)O)NC(=O)C(C)(C)NC(=O)[C@@H](N)Cc1ccc(O)cc1)[C@@H](C)O)[C@@H](C)CC)C(=O)N[C@@](C)(CC(C)C)C(=O)N[C@@H](CC(C)C)C(=O)N[C@@H](CC(=O)O)C(=O)N[C@@H](CCCCN)C(=O)N[C@@H](CCCCNC(=O)COCCOCCNC(=O)COCCOCCNC(=O)CC[C@H](NC(=O)CCCCCCCCCCCCCCCCCCC(=O)O)C(=O)O)C(=O)N[C@@H](Cc1c[nH]cn1)C(=O)N[C@@H](CCC(N)=O)C(=O)NC(C)(C)C(=O)N[C@@H](CCC(=O)O)C(=O)N[C@@H](Cc1ccccc1)C(=O)N[C@H](C(=O)N[C@@H](CCC(=O)O)C(=O)N[C@@H](Cc1ccncc1)C(=O)N[C@@H](CC(C)C)C(=O)N[C@@H](CC(C)C)C(=O)N[C@@H](C)C(=O)N[C@@H](C)C(=O)NCC(=O)N1CCC[C@H]1C(=O)N[C@@H](CO)C(=O)N[C@@H](CO)C(=O)NCC(=O)N[C@@H](C)C(=O)N1CCC[C@H]1C(=O)N1CCC[C@H]1C(=O)N1CCC[C@H]1C(=O)N[C@@H](CO)C(N)=O)C(C)C` [Example 62] (H-Y[Aib]EGT[αMeF]ISDYSI[αMeL]LDKK([AEEA-AEEA-γGlu-C20 diacid])HQ[Aib]EFVE[4Pal]LLAAGPSSGAPPPS-NH2), the pKi at human GcgR is 7.50; on human GIPR, 10.38; on human GLP-1R it was 7.32.

Turning to `CC[C@H](C)[C@H](NC(=O)[C@H](Cc1ccccc1)NC(=O)[C@@H](NC(=O)CNC(=O)[C@H](CCC(=O)O)NC(=O)C(C)(C)NC(=O)[C@@H](N)Cc1ccc(O)cc1)[C@@H](C)O)C(=O)N[C@@H](CO)C(=O)N[C@@H](CC(=O)O)C(=O)N[C@@H](Cc1ccc(O)cc1)C(=O)N[C@@H](CO)C(=O)N[C@H](C(=O)N[C@@](C)(CC(C)C)C(=O)N[C@@H](CC(C)C)C(=O)N[C@@H](CC(=O)O)C(=O)N[C@@H](CCCCN)C(=O)N[C@@H](CCCCNC(=O)COCCOCCNC(=O)COCCOCCNC(=O)CC[C@H](NC(=O)CCCCCCCCCCCCCCCCCCC(=O)O)C(=O)O)C(=O)N[C@@H](Cc1c[nH]cn1)C(=O)N[C@@H](CCC(N)=O)C(=O)NC(C)(C)C(=O)N[C@@H](CCC(=O)O)C(=O)N[C@@H](Cc1ccccc1)C(=O)N[C@H](C(=O)N[C@@H](CCC(=O)O)C(=O)N[C@@H](Cc1ccc(O)cc1)C(=O)N[C@@H](CC(C)C)C(=O)N[C@@H](CC(C)C)C(=O)N[C@@H](CCC(=O)O)C(=O)N[C@@H](CCC(N)=O)C(=O)NCC(=O)N1CCC[C@H]1C(=O)N[C@@H](CO)C(=O)N[C@@H](CO)C(=O)NCC(=O)N[C@@H](C)C(=O)N1CCC[C@H]1C(=O)N1CCC[C@H]1C(=O)N1CCC[C@H]1C(=O)N[C@@H](CO)C(N)=O)C(C)C)[C@@H](C)CC` [Example 63] (H-Y[Aib]EGTFISDYSI[αMeL]LDKK([AEEA-AEEA-γGlu-C20 diacid])HQ[Aib]EFVEYLLEQGPSSGAPPPS-NH2), the pKi on human GcgR was 6.73; at human GIPR, 10.61; on human GLP-1R, 6.49.

For the compound `CC[C@H](C)[C@H](NC(=O)[C@H](Cc1ccccc1)NC(=O)[C@@H](NC(=O)CNC(=O)[C@H](CCC(=O)O)NC(=O)C(C)(C)NC(=O)[C@@H](N)Cc1ccc(O)cc1)[C@@H](C)O)C(=O)N[C@@H](CO)C(=O)N[C@@H](CC(=O)O)C(=O)N[C@@H](Cc1ccc(O)cc1)C(=O)N[C@@H](CO)C(=O)N[C@H](C(=O)N[C@@](C)(CC(C)C)C(=O)N[C@@H](CC(C)C)C(=O)N[C@@H](CC(=O)O)C(=O)N[C@@H](CCCCN)C(=O)N[C@@H](CCCCNC(=O)COCCOCCNC(=O)COCCOCCNC(=O)CC[C@H](NC(=O)CCCCCCCCCCCCCCCCCCC(=O)O)C(=O)O)C(=O)N[C@@H](Cc1c[nH]cn1)C(=O)N[C@@H](CCC(N)=O)C(=O)NC(C)(C)C(=O)N[C@@H](CCC(=O)O)C(=O)N[C@@H](Cc1ccccc1)C(=O)N[C@H](C(=O)N[C@@H](CCC(=O)O)C(=O)N[C@@H](Cc1ccc(O)cc1)C(=O)N[C@@H](CC(C)C)C(=O)N[C@@H](CC(C)C)C(=O)N[C@@H](CCC(=O)O)C(=O)N[C@H](C(=O)NCC(=O)N1CCC[C@H]1C(=O)N[C@@H](CO)C(=O)N[C@@H](CO)C(=O)NCC(=O)N[C@@H](C)C(=O)N1CCC[C@H]1C(=O)N1CCC[C@H]1C(=O)N1CCC[C@H]1C(=O)N[C@@H](CO)C(N)=O)[C@@H](C)O)C(C)C)[C@@H](C)CC` [Example 64] (H-Y[Aib]EGTFISDYSI[αMeL]LDKK([AEEA-AEEA-γGlu-C20 diacid])HQ[Aib]EFVEYLLETGPSSGAPPPS-NH2), the pKi at human GcgR is 6.71; at human GIPR, 10.66; at human GLP-1R it was 6.32.
